From patent US8551524B2, “Anti-diabetic combinations” (priority 2007, dated 2013)

Conditions: human, in vivo
Text: a. […] Laboratory results were then reviewed for these particular patients to determine which patients actually had clinically important changes in a given laboratory parameter.

Structure (SMILES) | patients with adverse events [%] | clinically important decreases in any hematological parameter directly attributable to the drug | responsibility for clinically meaningful elevations in ALT and AST
CN(C)C(=N)N=C(N)N [metformin] | 10 | – | –
N[C@@H](CC(=O)N1CCn2c(nnc2C(F)(F)F)C1)Cc1cc(F)c(F)cc1F [sitagliptin] | 8 | No patient experienced clinically important decreases | not responsible for the variations
